Measurements from publication PMC5698418 (Nature Communications, 2017).

How the values were obtained:
Arc protein = test: Western blot of total Arc protein in primary cortical neurons; format: cell-based, mouse; conditions: CGP 57380 5 µM co-treated 6 h with BDNF
Procedure: Forebrains of E16.5 C57BL/6 mouse embryos were dissected and then dissociated in trypsin solution for 15 min followed by three washes with phosphate-buffered saline (PBS). Single-cell suspension was achieved by gentle pipet trituration. Neurons were seeded in poly-L-lysine/laminin-coated six-well plates at a density of 2 × 10^6 per well and maintained in neurobasal medium containing B27 supplement (2%, Invitrogen, Grand Island, NY), penicillin (50 units ml^−1, Invitrogen), streptomycin (50 µg ml^−1, Invitrogen), and glutamine (1 mM, Sigma). For experiments involving BDNF (EMD Millipore Corps, Billerica, MA), the stock solution (2 ng µl^−1 in water) was added directly to the culture medium at a final concentration of 100 ng ml^−1 for the indicated period of time.
The following procedure was used to quantify western blots. First, equal quantity of protein lysate was analyzed by SDS–PAGE for each biological replicate. Second, the exposure time of the film to the ECL chemiluminescence was the same for each biological replicate. Third, all the exposed films were scanned on a Brother MFC-J485DW scanner in grayscale at a resolution of 300 dpi. Fourth, the look-up table (LUT) of the scanned tiff images was inverted and the intensity of each band was individually measured using the selection tool and the histogram function in Adobe Photoshop CC 2015 software. […]

eIF4E phosphorylation = test: Western blot of phospho-eIF4E in primary cortical neurons; format: cell-based, mouse; conditions: CGP 57380 5 µM co-treated 6 h with BDNF
Procedure: For western blot analyses, cells were collected by scraping in ice-cold radioimmunoprecipitation assay (RIPA) buffer (50 mM Tris-HCl (pH 8.0), 300 mM NaCl, 0.5% Igepal-630, 0.5% deoxycholic acid, 0.1% SDS, 1 mM EDTA) supplemented with a cocktail of protease inhibitors (Complete Protease Inhibitor without EDTA, Roche Applied Science, Indianapolis, IN) and phosphatase inhibitors (phosphatase inhibitor cocktail A, Santa Cruz Biotechnology). One volume of 2× Laemmli buffer (100 mM Tris-HCl (pH 6.8), 4% SDS, 0.15% bromophenol blue, 20% glycerol, 200 mM β-mercaptoethanol) was added and the extracts were boiled for 5 min. Samples were adjusted to an equal concentration after protein concentrations were determined using the BCA assay (Pierce, Thermo Fisher Scientific). Lysates were separated using SDS–PAGE and transferred to a nitrocellulose membrane. After transfer, the membrane was blocked in TBST (Tris-buffered saline + 0.1% Tween 20) supplemented with 5% nonfat powdered milk and probed with the indicated primary antibody at 4 °C overnight. After washing with TBST, the membrane was incubated with the appropriate secondary antibody and visualized using enhanced chemiluminescence (ECL) reagents according to the manufacturer’s guidelines (Pierce, Thermo Fisher Scientific). Uncropped scans with molecular weight reference are shown in Supplementary Figs. 10–20.

For `Nc1ncnc2n[nH]c(Nc3ccc(F)cc3)c12` [CGP 57380], the “effect on BDNF-induced Arc expression (western blot)” value (Arc protein) was “did not prevent Arc expression” and the “effect on eIF4E phosphorylation” value (eIF4E phosphorylation) was “impacting eukaryotic translation initiation factor 4E (eIF4E) phosphorylation”.
